system: not given; test: not given; conditions: not given

melting point	SMILES
209.7 to 211.9 °C	COC(=O)c1nc(-c2cc(F)c(C#N)cc2F)cc(N)c1Cl [Compound 202]

system: Key Broadleaf Weed and Crop Species; test: Post-emergent Test II herbicidal activity (Table 5); assay type: in vivo; conditions: post-emergence, 336 h; ABUTH: velvetleaf (Abutilon theophrasti); 70 g ai/ha; post-emergent; 14 days after application; read-out: Visual Growth Reduction (%) 14 Days After Application ABUTH
Summary of the method: (§1)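 Visual injury ratings (0 = no injury, 100 = complete kill) were taken 14 d after treatment, relative to untreated plants. Seedlings at the first–second true leaf stage received overhead spray at 187 L/ha; the highest rate was serially diluted to ½×, ¼×, ⅛× and 1/16×.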

SMILES	pest or weed control at 70 g/ha
COC(=O)c1nc(-c2cc(F)c(C#N)cc2F)cc(N)c1Cl [Compound 202]	95 to 100%

same assay, conditions: post-emergence, 336 h; ABUTH: velvetleaf (Abutilon theophrasti); 140 g ai/ha; post-emergent; 14 days after application; read-out: Visual Growth Reduction (%) 14 Days After Application ABUTH

SMILES	pest or weed control at 140 g/ha
COC(=O)c1nc(-c2cc(F)c(C#N)cc2F)cc(N)c1Cl [Compound 202]	95 to 100%

same assay, conditions: post-emergence, 336 h; AMARE: redroot pigweed (Amaranthus retroflexus); 70 g ai/ha; post-emergent; 14 days after application; read-out: Visual Growth Reduction (%) 14 Days After Application AMARE

SMILES	pest or weed control at 70 g/ha
COC(=O)c1nc(-c2cc(F)c(C#N)cc2F)cc(N)c1Cl [Compound 202]	95 to 100%

same assay, conditions: post-emergence, 336 h; AMARE: redroot pigweed (Amaranthus retroflexus); 140 g ai/ha; post-emergent; 14 days after application; read-out: Visual Growth Reduction (%) 14 Days After Application AMARE

SMILES	pest or weed control at 140 g/ha
COC(=O)c1nc(-c2cc(F)c(C#N)cc2F)cc(N)c1Cl [Compound 202]	95 to 100%

same assay, conditions: post-emergence, 336 h; BRSNN: oilseed-rape, canola (Brassica napus); 70 g ai/ha; post-emergent; 14 days after application; read-out: Visual Growth Reduction (%) 14 Days After Application BRSNN

SMILES	pest or weed control at 70 g/ha
COC(=O)c1nc(-c2cc(F)c(C#N)cc2F)cc(N)c1Cl [Compound 202]	75 to 84%

same assay, conditions: post-emergence, 336 h; BRSNN: oilseed-rape, canola (Brassica napus); 140 g ai/ha; post-emergent; 14 days after application; read-out: Visual Growth Reduction (%) 14 Days After Application BRSNN

SMILES	pest or weed control at 140 g/ha
COC(=O)c1nc(-c2cc(F)c(C#N)cc2F)cc(N)c1Cl [Compound 202]	85 to 94%

same assay, conditions: post-emergence, 336 h; CHEAL: lambsquarters (Chenopodium album); 70 g ai/ha; post-emergent; 14 days after application; read-out: Visual Growth Reduction (%) 14 Days After Application CHEAL

SMILES	pest or weed control at 70 g/ha
COC(=O)c1nc(-c2cc(F)c(C#N)cc2F)cc(N)c1Cl [Compound 202]	95 to 100%

same assay, conditions: post-emergence, 336 h; CHEAL: lambsquarters (Chenopodium album); 140 g ai/ha; post-emergent; 14 days after application; read-out: Visual Growth Reduction (%) 14 Days After Application CHEAL

SMILES	pest or weed control at 140 g/ha
COC(=O)c1nc(-c2cc(F)c(C#N)cc2F)cc(N)c1Cl [Compound 202]	95 to 100%

same assay, conditions: post-emergence, 336 h; EPHHL: wild poinsettia (Euphorbia heterophylla); 70 g ai/ha; post-emergent; 14 days after application; read-out: Visual Growth Reduction (%) 14 Days After Application EPHHL

SMILES	pest or weed control at 70 g/ha
COC(=O)c1nc(-c2cc(F)c(C#N)cc2F)cc(N)c1Cl [Compound 202]	95 to 100%

same assay, conditions: post-emergence, 336 h; EPHHL: wild poinsettia (Euphorbia heterophylla); 140 g ai/ha; post-emergent; 14 days after application; read-out: Visual Growth Reduction (%) 14 Days After Application EPHHL

SMILES	pest or weed control at 140 g/ha
COC(=O)c1nc(-c2cc(F)c(C#N)cc2F)cc(N)c1Cl [Compound 202]	95 to 100%

same assay, conditions: post-emergence, 336 h; HELAN: sunflower (Helianthus annuus); 70 g ai/ha; post-emergent; 14 days after application; read-out: Visual Growth Reduction (%) 14 Days After Application HELAN

SMILES	pest or weed control at 70 g/ha
COC(=O)c1nc(-c2cc(F)c(C#N)cc2F)cc(N)c1Cl [Compound 202]	95 to 100%

same assay, conditions: post-emergence, 336 h; HELAN: sunflower (Helianthus annuus); 140 g ai/ha; post-emergent; 14 days after application; read-out: Visual Growth Reduction (%) 14 Days After Application HELAN

SMILES	pest or weed control at 140 g/ha
COC(=O)c1nc(-c2cc(F)c(C#N)cc2F)cc(N)c1Cl [Compound 202]	95 to 100%

same assay, conditions: post-emergence, 336 h; VIOTR: wild pansy (Viola tricolor); 70 g ai/ha; post-emergent; 14 days after application; read-out: Visual Growth Reduction (%) 14 Days After Application VIOTR

SMILES	pest or weed control at 70 g/ha
COC(=O)c1nc(-c2cc(F)c(C#N)cc2F)cc(N)c1Cl [Compound 202]	60 to 74%

same assay, conditions: post-emergence, 336 h; VIOTR: wild pansy (Viola tricolor); 140 g ai/ha; post-emergent; 14 days after application; read-out: Visual Growth Reduction (%) 14 Days After Application VIOTR

SMILES	pest or weed control at 140 g/ha
COC(=O)c1nc(-c2cc(F)c(C#N)cc2F)cc(N)c1Cl [Compound 202]	60 to 74%

system: Key Grass and Sedge Weeds as well as Grass Crops; test: Post-emergent Test II herbicidal activity (Table 6); assay type: in vivo; conditions: post-emergence, 336 h, CYPES: yellow nutsedge (Cyperus esculentus), application rate 70 g ai/ha, read-out: Visual Growth Reduction (%) 14 Days After Application, CYPES
Summary of the method: as §1

SMILES	pest or weed control at 70 g/ha
COC(=O)c1nc(-c2cc(F)c(C#N)cc2F)cc(N)c1Cl [Compound 202]	85 to 94%

same assay, conditions: post-emergence, 336 h, CYPES: yellow nutsedge (Cyperus esculentus), application rate 140 g ai/ha, read-out: Visual Growth Reduction (%) 14 Days After Application, CYPES

SMILES	pest or weed control at 140 g/ha
COC(=O)c1nc(-c2cc(F)c(C#N)cc2F)cc(N)c1Cl [Compound 202]	85 to 94%

same assay, conditions: post-emergence, 336 h, DIGSA: crabgrass (Digitaria sanguinalis), application rate 70 g ai/ha, read-out: Visual Growth Reduction (%) 14 Days After Application, DIGSA

SMILES	pest or weed control at 70 g/ha
COC(=O)c1nc(-c2cc(F)c(C#N)cc2F)cc(N)c1Cl [Compound 202]	30 to 44%

same assay, conditions: post-emergence, 336 h, DIGSA: crabgrass (Digitaria sanguinalis), application rate 140 g ai/ha, read-out: Visual Growth Reduction (%) 14 Days After Application, DIGSA

SMILES	pest or weed control at 140 g/ha
COC(=O)c1nc(-c2cc(F)c(C#N)cc2F)cc(N)c1Cl [Compound 202]	60 to 74%

same assay, conditions: post-emergence, 336 h, ECHCG: barnyardgrass (Echinochloa crus-galli), application rate 70 g ai/ha, read-out: Visual Growth Reduction (%) 14 Days After Application, ECHCG

SMILES	pest or weed control at 70 g/ha
COC(=O)c1nc(-c2cc(F)c(C#N)cc2F)cc(N)c1Cl [Compound 202]	60 to 74%

same assay, conditions: post-emergence, 336 h, ECHCG: barnyardgrass (Echinochloa crus-galli), application rate 140 g ai/ha, read-out: Visual Growth Reduction (%) 14 Days After Application, ECHCG

SMILES	pest or weed control at 140 g/ha
COC(=O)c1nc(-c2cc(F)c(C#N)cc2F)cc(N)c1Cl [Compound 202]	95 to 100%

same assay, conditions: post-emergence, 336 h, ORYSA: rice (Oryza sativa), application rate 70 g ai/ha, read-out: Visual Growth Reduction (%) 14 Days After Application, ORYSA

SMILES	pest or weed control at 70 g/ha
COC(=O)c1nc(-c2cc(F)c(C#N)cc2F)cc(N)c1Cl [Compound 202]	0 to 29%

same assay, conditions: post-emergence, 336 h, ORYSA: rice (Oryza sativa), application rate 140 g ai/ha, read-out: Visual Growth Reduction (%) 14 Days After Application, ORYSA

SMILES	pest or weed control at 140 g/ha
COC(=O)c1nc(-c2cc(F)c(C#N)cc2F)cc(N)c1Cl [Compound 202]	0 to 29%

same assay, conditions: post-emergence, 336 h, SETFA: giant foxtail (Setaria faberi), application rate 70 g ai/ha, read-out: Visual Growth Reduction (%) 14 Days After Application, SETFA

SMILES	pest or weed control at 70 g/ha
COC(=O)c1nc(-c2cc(F)c(C#N)cc2F)cc(N)c1Cl [Compound 202]	60 to 74%

same assay, conditions: post-emergence, 336 h, SETFA: giant foxtail (Setaria faberi), application rate 140 g ai/ha, read-out: Visual Growth Reduction (%) 14 Days After Application, SETFA

SMILES	pest or weed control at 140 g/ha
COC(=O)c1nc(-c2cc(F)c(C#N)cc2F)cc(N)c1Cl [Compound 202]	60 to 74%

same assay, conditions: post-emergence, 336 h, SORVU: grain sorghum (Sorghum vulgare), application rate 70 g ai/ha, read-out: Visual Growth Reduction (%) 14 Days After Application, SORVU

SMILES	pest or weed control at 70 g/ha
COC(=O)c1nc(-c2cc(F)c(C#N)cc2F)cc(N)c1Cl [Compound 202]	60 to 74%

same assay, conditions: post-emergence, 336 h, SORVU: grain sorghum (Sorghum vulgare), application rate 140 g ai/ha, read-out: Visual Growth Reduction (%) 14 Days After Application, SORVU

SMILES	pest or weed control at 140 g/ha
COC(=O)c1nc(-c2cc(F)c(C#N)cc2F)cc(N)c1Cl [Compound 202]	85 to 94%

same assay, conditions: post-emergence, 336 h, TRZSS (wheat, Triticum aestivum), application rate 70 g ai/ha, read-out: Visual Growth Reduction (%) 14 Days After Application, TRZSS

SMILES	pest or weed control at 70 g/ha
COC(=O)c1nc(-c2cc(F)c(C#N)cc2F)cc(N)c1Cl [Compound 202]	60 to 74%

same assay, conditions: post-emergence, 336 h, TRZSS (wheat, Triticum aestivum), application rate 140 g ai/ha, read-out: Visual Growth Reduction (%) 14 Days After Application, TRZSS

SMILES	pest or weed control at 140 g/ha
COC(=O)c1nc(-c2cc(F)c(C#N)cc2F)cc(N)c1Cl [Compound 202]	75 to 84%

same assay, conditions: post-emergence, 336 h, ZEAMX: maize, corn (Zea mays), application rate 70 g ai/ha, read-out: Visual Growth Reduction (%) 14 Days After Application, ZEAMX

SMILES	pest or weed control at 70 g/ha
COC(=O)c1nc(-c2cc(F)c(C#N)cc2F)cc(N)c1Cl [Compound 202]	30 to 44%

same assay, conditions: post-emergence, 336 h, ZEAMX: maize, corn (Zea mays), application rate 140 g ai/ha, read-out: Visual Growth Reduction (%) 14 Days After Application, ZEAMX

SMILES	pest or weed control at 140 g/ha
COC(=O)c1nc(-c2cc(F)c(C#N)cc2F)cc(N)c1Cl [Compound 202]	45 to 59%

— US9113629B2, “4-amino-6-(4-substituted-phenyl)-picolinates and 6-amino-2-(4-substituted-phenyl)-pyrimidine-4-carboxylates and their use as herbicides” (DOW AGROSCIENCES LLC, priority 2013, dated 2015)
